How the values were obtained:
[1] = target: T1, human glucocorticoid receptor (GR) complex (Homo sapiens, UniProt P04150); assay: Glucocorticoid receptor competitive binding assay (fluorescence polarization, TAMRA-labeled dexamethasone probe); settings: compounds of Formula (IA)
T1 construct: made in house; host or cells: insect expression system (baculovirus lysate)
T1 sequence (P04150 1-777): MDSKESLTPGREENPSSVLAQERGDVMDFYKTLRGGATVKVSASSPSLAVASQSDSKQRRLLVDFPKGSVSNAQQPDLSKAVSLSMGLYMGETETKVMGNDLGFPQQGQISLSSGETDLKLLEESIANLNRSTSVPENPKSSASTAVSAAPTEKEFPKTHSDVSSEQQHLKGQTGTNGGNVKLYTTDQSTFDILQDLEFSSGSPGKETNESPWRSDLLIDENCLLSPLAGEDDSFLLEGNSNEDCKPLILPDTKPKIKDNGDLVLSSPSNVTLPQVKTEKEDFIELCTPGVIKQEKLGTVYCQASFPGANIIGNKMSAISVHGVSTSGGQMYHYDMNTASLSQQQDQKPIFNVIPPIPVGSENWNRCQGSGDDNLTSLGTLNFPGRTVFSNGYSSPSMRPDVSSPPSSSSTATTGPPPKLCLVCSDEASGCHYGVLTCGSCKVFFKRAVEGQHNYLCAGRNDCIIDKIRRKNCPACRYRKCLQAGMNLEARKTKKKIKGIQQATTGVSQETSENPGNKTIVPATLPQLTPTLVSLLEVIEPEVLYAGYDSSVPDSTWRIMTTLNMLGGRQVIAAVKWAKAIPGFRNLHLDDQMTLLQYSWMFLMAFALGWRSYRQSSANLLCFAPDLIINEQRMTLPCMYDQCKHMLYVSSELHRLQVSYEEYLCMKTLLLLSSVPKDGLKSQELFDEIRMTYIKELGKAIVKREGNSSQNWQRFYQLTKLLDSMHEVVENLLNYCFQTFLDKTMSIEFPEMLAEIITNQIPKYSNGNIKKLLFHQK
In short: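 Fluorescence-polarization competition against 15 nM TAMRA-dexamethasone (stock added to the mix) for human GR complex from baculovirus lysate diluted 1:170. Buffer: 10 mM TES, 50 mM KCl, 20 mM Na2MoO4, 1.5 mM EDTA, 0.04% CHAPS, 10% glycerol, 1 mM DTT, pH 7.4. IC50 from 4-parameter logistic fit.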

[2] = system: glucocorticoid receptor function; assay: one or more of the above assays (GR binding and glucocorticoid receptor cell assays: aromatase, IL-6, TAT, MMTV-Luc, IL-8, ICAM-Luc); assay type: cell-based; settings: assay not specified per compound
[3] = system: Human osteosarcoma MG-63 cells; assay: Inhibition of osteocalcin production from osteoblast cell line MG-63; assay type: cell-based; settings: Vitamin D 10 nM, 48 hours
Method: 7. Inhibition of Osteocalcin Production from Osteoblast Cell Line MG-63
The next day, wells are replaced with fresh media. Cells are treated with Vitamin D (Sigma, Cat. No. D1530) to a final concentration of 10 nM, and with the test compounds in concentrations of 10^−6 M to 10^−9 M, in a total volume of 200 μL per well. Samples are done in duplicates. […] Positive control wells receive Vitamin D only, without compounds, and represent maximum (100%) amount of osteocalcin production. Plates are incubated at 37° C. incubator for 48 hours and supernatants are harvested at the end of incubation. Amounts of osteocalcin in the supernatants are determined by the Glype osteocalcin ELISA kit (Zymed, Cat. No. 99-0054) according to manufacture's protocol. Inhibition of osteocalcin by test compounds is expressed in percentage relative to positive controls. IC50 values of the test compounds are derived by non-lineal curve fitting.

SMILES | activity in the GR binding assay [1] | activity as agonists of the glucocorticoid receptor function in one or more of the above assays [2] | inhibit the vitamin D stimulated production of osteocalcin [3]
Cc1ccc(F)cc1C(C)(C)CC(O)(Cc1cc2cnncc2[nH]1)C(F)(F)F (stereo not shown) [1,1,1-Trifluoro-4-(5-fluoro-2-methylphenyl)-4-methyl-2-(1H-pyrrolo[2,3-d]pyridazin-2-ylmethyl)pentan-2-ol] | potent activity | potent agonists | inhibit
Cc1cc2[nH]c(CC(O)(CC(C)(C)c3cc(Cl)cc4c3OCC4)C(F)(F)F)cc2c(C)n1 (stereo not shown) [4-(5-Chloro-2,3-dihydrobenzofuran-7-yl)-2-(4,6-dimethyl-1H-pyrrolo[3,2-c]pyridin-2-ylmethyl)-1,1,1-trifluoro-4-methylpentan-2-ol] | potent activity | potent agonists | inhibit
COc1ccc(F)cc1C(C)(C)CC(O)(Cc1cc2c(C)nc(C#N)cc2[nH]1)C(F)(F)F (stereo not shown) [2-[4-(5-Fluoro-2-methoxyphenyl)-2-hydroxy-4-methyl-2-trifluoromethylpentyl]-4-methyl-1H-pyrrolo[3,2-c]pyridine-6-carbonitrile] | potent activity | potent agonists | inhibit
Cc1cc(C#N)cc2[nH]c(CC(O)(CC(C)(C)c3cc(S(C)(=O)=O)cc4c3OCC4)C(F)(F)F)cc12 (stereo not shown) [2-[2-Hydroxy-4-(5-methanesulfonyl-2,3-dihydrobenzofuran-7-yl)-4-methyl-2-trifluoromethylpentyl]-4-methyl-1H-indole-6-carbonitrile] | potent activity | potent agonists | inhibit
CC(C)(CC(O)(Cc1cc2cc(C(=O)NCC#N)ccc2[nH]1)C(F)(F)F)c1cc(Br)cc2c1OCC2 (stereo not shown) [2-[4-(5-Bromo-2,3-dihydrobenzofuran-7-yl)-2-hydroxy-4-methyl-2-trifluoromethylpentyl]-1H-indole-5-carboxylic acid cyanomethylamide] | potent activity | potent agonists | inhibit
COc1cc2cc(CC(O)(CC(C)(C)c3cc(Cl)cc4c3OCC4)C(F)(F)F)[nH]c2cn1 (stereo not shown) [4-(5-Chloro-2,3-dihydrobenzofuran-7-yl)-1,1,1-trifluoro-2-(5-methoxy-1H-pyrrolo[2,3-c]pyridin-2-ylmethyl)-4-methylpentan-2-ol] | potent activity | potent agonists | inhibit
CC(C)(CC(O)(Cc1cc2cnccc2[nH]1)C(F)(F)F)c1cccc(Cl)c1 (stereo not shown) [4-(3-Chlorophenyl)-1,1,1-trifluoro-4-methyl-2-(1H-pyrrolo[3,2-c]pyridin-2-ylmethyl)pentan-2-ol] | – | potent agonists | inhibit
Cc1c(CC(O)(CC(C)(C)c2cc(-c3cncnc3)cc3c2OCC3)C(F)(F)F)[nH]c2cnccc12 (stereo not shown) [1,1,1-Trifluoro-4-methyl-2-(3-methyl-1H-pyrrolo[2,3-c]pyridin-2-ylmethyl)-4-(5-pyrimidin-5-yl-2,3-dihydrobenzofuran-7-yl)pentan-2-ol] | – | potent agonists | inhibit
CCN(C)c1cc2cc(CC(O)(CC(C)(C)c3cc(Cl)cc4c3OCC4)C(F)(F)F)[nH]c2cn1 (stereo not shown) [4-(5-Chloro-2,3-dihydrobenzofuran-7-yl)-2-[5-(ethylmethylamino)-1H-pyrrolo[2,3-c]pyridin-2-ylmethyl]-1,1,1-trifluoro-4-methylpentan-2-ol] | – | potent agonists | inhibit
Cc1nccc2[nH]c(CC(O)(CC(C)(C)c3cc(Cl)cc4c3OCC4)C(F)(F)F)cc12 (stereo not shown) [4-(5-Chloro-2,3-dihydrobenzofuran-7-yl)-1,1,1-trifluoro-4-methyl-2-(4-methyl-1H-pyrrolo[3,2-c]pyridin-2-ylmethyl)pentan-2-ol] | – | potent agonists | inhibit
CC(C)(CC(O)(Cc1cc2cc(C(N)=O)ccc2[nH]1)C(F)(F)F)c1cc(Br)cc2c1OCC2 (stereo not shown) [2-[4-(5-Bromo-2,3-dihydrobenzofuran-7-yl)-2-hydroxy-4-methyl-2-trifluoromethylpentyl]-1H-indole-5-carboxylic acid amide] | potent activity | potent agonists | inhibit
Cc1ccc(F)cc1C(C)(C)CC(O)(Cc1cc2cc(-c3ccccc3)ncc2[nH]1)C(F)(F)F (stereo not shown) [1,1,1-Trifluoro-4-(5-fluoro-2-methylphenyl)-4-methyl-2-(5-phenyl-1H-pyrrolo[2,3-c]pyridin-2-ylmethyl)pentan-2-ol] | – | potent agonists | inhibit
CC(C)(CC(O)(Cc1cc2cc(C(=O)N3CCCC3)ccc2[nH]1)C(F)(F)F)c1cc(Br)cc2c1OCC2 (stereo not shown) [{2-[4-(5-Bromo-2,3-dihydrobenzofuran-7-yl)-2-hydroxy-4-methyl-2-trifluoromethylpentyl]-1H-indol-5-yl}pyrrolidin-1-ylmethanone] | potent activity | potent agonists | inhibit
